Values after ≈ are worked out from the molar mass of the structure shown.
Tests used:
[1] = tested on: cyprid larvae of the barnacle Balanus amphitrite; experiment: Settlement assay for cyprid-stage barnacle larvae (% settlement)
Protocol: All compounds were tested for their ability to inhibit settlement by cyprid larvae of the barnacle Balanus amphitrite . […] Controls consisted of barnacle larvae and filtered seawater added to the dishes or vials without test compound. Dishes were then incubated for 20-24 hrs at 28° C. with light for approximately 15 hours and in darkness for approximately 9 hours. The dishes or vials were then removed from the incubator, examined under a dissecting microscope to determine whether larvae were living or dead. Larvae were then killed by addition of several drops of 10% formalin solution. Settlement rate was quantified as number of larvae that had attached to the dish or vial surface, expressed as a percentage of total larvae in the dish or vial. Experiments were performed in duplicate.
A number of lactones were tested for control of barnacle settlement. All lactones were tested at a concentration of 3×10^-6 M in dishes containing seawater. The larvae were added and the test conducted as described above.
Five ml of each solution were added to duplicate dishes. The larvae were then added to the dishes and the test conducted as described above.
Aliquots of these solutions were taken and added to duplicate dishes. […] The larvae were then added to the dishes and the test conducted as described above.
A series of solutions of a-angelica lactone in seawater at concentrations ranging from 500 μg/ml to 5 ng/ml were prepared. Aliquots of these solutions were taken and added to duplicate dishes. […] The larvae were then added to the dishes and the test conducted as described above.
A solution of 2-coumaranone (25 μg in 50 ml of filtered, aged seawater) was prepared. The larvae were then added to the dishes and the test conducted as described above.
A series of solutions of γ-decalactone in seawater at concentrations ranging from 500 μg/ml to 5 pg/ml were prepared. Aliquots of these solutions were taken and added to duplicate dishes. […] The larvae were then added to the dishes and the test conducted as described above.
A series of solutions of γ-valerolactone in seawater at concentrations ranging from 500 μg/ml to 500 pg/ml were prepared. Aliquots of these solutions were taken and added to duplicate dishes. […] The larvae were then added to the dishes and the test conducted as described above.

nauplius stage larvae = experiment: whole plant or invertebrate; settings: for LC50: Amphibalanus amphitrite, read-out: ED50 (half-maximal inhibition)
Protocol: Toxicity assays were conducted by adding nauplius stage larvae to 50×5 mm polystyrene Petri dishes or glass vials containing 5 ml of 100 kDa iltered seawater. […] Dishes or vials receiving no test compound served as controls. The dishes or vials were incubated at 28° C. with a 15:9 light:dark cycle. […] The number of living and dead larvae were then counted. Probit analysis was used to obtain concentrations corresponding to half-maximal inhibition (EC50 values).

[2] = Table 1, 3×10^-6 M in seawater, dishes, Control 35

SMILES: O=C1Cc2ccccc2O1 [2-coumaranone]
- % Settlement ([1]; Table 6 (Example 6), nominal 5 ng/ml, Control 58): 54%
- % Settlement ([1]; Table 6 (Example 6), nominal 50 ng/ml, Control 58): 61%
- % Settlement ([1]; Table 6 (Example 6), nominal 500 ng/ml, Control 58): 59%
- % Settlement ([1]; Table 6 (Example 6), nominal 5 μg/ml, Control 58): 51%
- % Settlement ([1]; Table 6 (Example 6), nominal 50 μg/ml, Control 58): 64%
- % Settlement ([1]; Table 6 (Example 6), nominal 500 μg/ml, Control 58): 0%

SMILES: C=C1C(=O)O[C@@H]2C[C@@]3(C)CCC[C@H](C)C3=C[C@H]12 [alantolactone]
- ED50 (half-maximal inhibition) (nauplius stage larvae; glass): 0.5 µg/mL (≈ 2.15 µM)

SMILES: CC1=CCC(=O)O1 [α-angelica lactone]
- LC50 (nauplius stage larvae): 70 µg/mL (≈ 714 µM)
- % Settlement ([1]; Table 4 (Example 4), 5 ng/ml, Control 62): 62%
- % Settlement ([1]; Table 4 (Example 4), 50 ng/ml, Control 62): 65%
- % Settlement ([1]; Table 4 (Example 4), 500 ng/ml, Control 62): 60%
- % Settlement ([1]; Table 4 (Example 4), 5 μg/ml, Control 62): 54%
- % Settlement ([1]; Table 4 (Example 4), 50 μg/ml, Control 62): 39%
- % Settlement ([1]; Table 4 (Example 4), 500 μg/ml, Control 62): 0%
- % Settlement ([1]; Table 5 (Example 5, second test), 5 ng/ml, Control 66): 41%
- % Settlement ([1]; Table 5 (Example 5, second test), 50 ng/ml, Control 66): 53%
- % Settlement ([1]; Table 5 (Example 5, second test), 500 ng/ml, Control 66): 33%
- % Settlement ([1]; Table 5 (Example 5, second test), 5 μg/ml, Control 66): 33%
- % Settlement ([1]; Table 5 (Example 5, second test), 50 μg/ml, Control 66): 3%
- % Settlement ([1]; Table 5 (Example 5, second test), 500 μg/ml, Control 66): 0%

SMILES: C=C1CCOC1=O [α-methylene-γ-butyrolactone]
- % Settlement ([1]; Table 2 (Example 2), 5 ng/ml, Control 62): 61%
- % Settlement ([1]; Table 2 (Example 2), 50 ng/ml, Control 62): 62%
- % Settlement ([1]; Table 2 (Example 2), 500 ng/ml, Control 62): 58%
- % Settlement ([1]; Table 2 (Example 2), 5 μg/ml, Control 62): 36%
- % Settlement ([1]; Table 2 (Example 2), 50 μg/ml, Control 62): 0%
- % Settlement ([1]; Table 2 (Example 2), 500 μg/ml, Control 62): 0%
- % Settlement ([1]; Table 3 (Example 3, second test), 50 ng/ml, Control 66): 49%
- % Settlement ([1]; Table 3 (Example 3, second test), 500 ng/ml, Control 66): 53%
- % Settlement ([1]; Table 3 (Example 3, second test), 5 μg/ml, Control 66): 47%
- % Settlement ([1]; Table 3 (Example 3, second test), 50 μg/ml, Control 66): 29%
- % Settlement ([1]; Table 3 (Example 3, second test), 500 μg/ml, Control 66): 5%

SMILES: CC1=C2[C@H]3OC(=O)[C@@H](C)[C@@H]3CC[C@@]2(C)C=CC1=O [α-santonin]
- LC50 (nauplius stage larvae): 14 µg/mL (≈ 56.8 µM)

SMILES: CCCCCCC1CCC(=O)O1 (stereo not drawn) [γ-decalactone]
- LC50 (nauplius stage larvae): 0.004 µg/mL (≈ 0.0235 µM)
- % Settlement [1, 2]: 3%
- % Settlement ([1]; Table 7 (Example 7), 5 pg/ml, Control 66): 45%
- % Settlement ([1]; Table 7 (Example 7), 50 pg/ml, Control 66): 52%
- % Settlement ([1]; Table 7 (Example 7), 500 pg/ml, Control 66): 44%
- % Settlement ([1]; Table 7 (Example 7), 5 ng/ml, Control 66): 32%
- % Settlement ([1]; Table 7 (Example 7), 50 ng/ml, Control 66): 25%
- % Settlement ([1]; Table 7 (Example 7), 500 ng/ml, Control 66): 8%
- % Settlement ([1]; Table 7 (Example 7), 5 μg/ml, Control 66): 25%
- % Settlement ([1]; Table 7 (Example 7), 50 μg/ml, Control 66): 1%
- % Settlement ([1]; Table 7 (Example 7), 500 μg/ml, Control 66): 0%

SMILES: CCCCC1CCC(=O)O1 (stereo not drawn) [γ-octanolactone]
- % Settlement [1, 2]: 39%

SMILES: CC1CCC(=O)O1 (stereo not drawn) [γ-valerolactone]
- % Settlement [1, 2]: 26%
- % Settlement ([1]; Table 8 (Example 8), 500 pg/ml, Control 66): 55%
- % Settlement ([1]; Table 8 (Example 8), 5 ng/ml, Control 66): 43%
- % Settlement ([1]; Table 8 (Example 8), 50 ng/ml, Control 66): 42%
- % Settlement ([1]; Table 8 (Example 8), 500 ng/ml, Control 66): 48%
- % Settlement ([1]; Table 8 (Example 8), 5 μg/ml, Control 66): 42%
- % Settlement ([1]; Table 8 (Example 8), 50 μg/ml, Control 66): 37%
- % Settlement ([1]; Table 8 (Example 8), 500 μg/ml, Control 66): 52%

SMILES: CCCCCCC1CCCC(=O)O1 (stereo not drawn) [δ-undecalactone, reference compound]
- % Settlement [1, 2]: 40%

SMILES: O=C1CCCCCO1 [ε-caprolactone, reference compound]
- % Settlement [1, 2]: 41%

From US5248221A, “Antifouling coating composition comprising lactone compounds, method for protecting aquatic structures, and articles protected against fouling organisms” (Rohm and Haas Company, priority 1992, dated 1993)
